From patent US20220071996A1, “ORAL FORMULATIONS OF BRANAPLAM” (NOVARTIS AG, priority 2018, published 2022) come the findings set out here.

The test system of data set [1] is juvenile dog. The data set is described as follows: 52-week chronic juvenile dog study. Type of data set: in vivo.
Data set [2] is described as follows: measured pKas of branaplam. Format: physicochemical. The following applies: acid.
The nature of data set [3]: phase solubility of branaplam in 2-hydroxypropyl-beta-cyclodextrin solutions. Format: physicochemical. The following applies: room temperature.
Data set [4] has as its system infants with Type I Spinal Muscular Atrophy. The data set is described as follows: open-label first-in-human proof of concept study of oral branaplam. Format: in vivo. The protocol:
Clinical Trial: An Open-Label Multi-Part First-In-Human Proof of Concept Study of Oral Branaplam in Infants with Type I Spinal Muscular Atrophy. • Part 1: The aim of part one of this study was to determine the safety and tolerability of ascending weekly doses and to estimate the maximum tolerated dose (MTD) of oral/enteral branaplam in infants with Type 1 SMA. All patients had exactly 2 copies of the SMN2 gene. • In part one of the study, patients were dosed once weekly with branaplam. The branaplam doses were escalated in subsequent cohorts until MTD was determined or when PK results confirmed that the MTD could not be reached due to a potential pharmacokinetic exposure plateau at higher doses. A decision to dose escalate the next cohort was made after safety data had been collected for 14 days following the first dose. Patients completing 13 weeks of treatment were considered to have completed the study. The starting dose was 6 mg/m^2 (approximately 0.3125 mg/kg). Subsequent doses were 12 mg/m^2, 24 mg/m^2, 48 mg/m^2 and 60 mg/m^2 (approximately 0.625 mg/kg, 1.25 mg/kg, 2.5 mg/kg and 3.125 mg/kg, respectively). Each cohort had 2-3 patients. All doses are of branaplam in free form. 14 patients were enrolled in Part 1; 13 patients were exposed to branaplam. The duration of exposure ranged from 4-33 months, 7 patients remain in the study. Six of the 7 patients are receiving 60 mg/m^2, 1 patient is receiving 48 mg/m^2.
Preliminary Safety Results • AEs/SAEs: 455 AEs were reported in the 13 patients; the vast majority were attributed to the underlying disease. Seventy-nine SAEs occurred associated with 59 hospitalizations of which 39 of the 59 hospitalizations were for respiratory events or infections. • Deaths: A total of five patients have died, all from ventilatory failure due to their underlying disease.
Part 2 of the study will enroll patients into 2 cohorts: cohort 1 at a 0.625 mg/kg dose and cohort 2 at a 2.5 mg/kg dose. The selected dose levels of 0.625 mg/kg and 2.5 mg/kg are based on all safety data from Part 1, as well as, all data from chronic juvenile toxicity studies available at the time of initiation of Part 2. Six to 10 patients will be enrolled in cohorts 1 and 2. A total of a minimum of 12 and maximum of 20 patients will be enrolled and treated for 52 weeks. • Starting dose: The dose of 0.625 mg/kg (corresponding to 12 mg/m^2) is chosen as a starting dose in Part 2 based on safety and preliminary efficacy data collected in Part 1 of the study. Indeed, following an USM treatment with branaplam continued but at a reduced dose of 6 mg/m^2 (0.3125 mg/kg) for all patients who had completed the initial 13 weeks of treatment. This dose was predicted to be efficacious based upon the preliminary clinical (CHOP INTEND) response of patients in Cohort 1. […] For that reason and also given the preliminary efficacy data collected in patients treated with branaplam at 12 mg/m^2 (0.625 mg/kg) it was decided to take this dose as a starting dose in Part 2. • Second dose: The dose of 2.5 mg/kg (corresponding to 48 mg/m^2) is selected as the second dose in Part 2 being 4-fold higher than the starting dose of 0.625 mg/kg (corresponding to 12 mg/m^2). The difference between 0.625 mg/kg and 2.5 mg/kg is considered to be sufficient to ensure appropriate separation in terms of systemic branaplam exposure and potentially also of efficacy endpoints.

Data set [5] in a line: measured log P of branaplam. Format: physicochemical.
Data set [6] is described as follows: pH-dependent stability and compatibility with preservatives. Type of data set: physicochemical.

In the case of `CC1(C)CC(Oc2ccc(-c3ccc(-c4cn[nH]c4)cc3O)nn2)CC(C)(C)N1` [branaplam, 5-(1H-pyrazol-4-yl)-2-(6-((2,2,6,6-tetramethylpiperidin-4-yl)oxy)pyridazin-3-yl)phenol], the nerve findings result in data set [1] was “findings of nerve degeneration”. The pKa in data set [2] worked out at 11.5. Besides, the “branaplam dissolved using 17.5% HP-b-CD” value in data set [3] is given as “about 10 mg/mL”. The “decrease of CHOP INTEND scores” value in data set [4] (13 weeks of treatment) was “no significant decrease was observed in any patient”. For the same molecule, the “Deaths (patients)” value in data set [4] (all from ventilatory failure due to underlying disease) was “five”. In addition, in data set [4] (human, in vivo), the AEs reported was found to be 455, the “hospitalizations associated with SAEs” value was 59 and the “hospitalizations for respiratory events or infections” value is 39. Also, in data set [4] (in vivo), the Clinical status result is on record as “do not follow the normal disease course for Type 1 SMA patients”, the SAEs entry is reported as “Seventy-nine”, the “patients who reached a CHOP INTEND score of >36” value is recorded as “Eight” and the “patients without feeding support after more than one year of treatment” value was “six”. Also, in data set [4] (in vivo), the “patients without feeding support after more than two years of treatment” value is on record as “five”; the “safety events following dose reduction” value was “decrease of motor skills, generalized motor weakness and increased respiratory muscle weakness”; the “treated patients without feeding support at around 8 months of age” value is listed as “Ten”. In addition, the dose limiting toxicity entry in data set [4] (in vivo, po) is given as “No dose limiting toxicity was observed”. The “Death or permanent ventilation endpoint” value in data set [4] (natural history median age 13.5 months) is given as “majority of treated patients have not met this endpoint”. Further, the “HINE Section 2: patients who achieved independent sitting” value in data set [4] (of the 11 patients evaluated) is “one”. Besides, the “patients with progressive and substantial increase of CHOP INTEND scores” value in data set [4] (po, 2184 h) came to 7. In data set [4] (treated for more than two years), the “patients without any ventilatory support with BiPAP” value is “Four”. This molecule also registered a logP in data set [5] of 2.6. The pH-dependent stability entry in data set [6] was “poor stability under pH 4”. For the same molecule, in data set [6] (preservative potassium sorbate), the “compatibility with potassium sorbate” value was “incompatibility with potassium sorbate”.
